# Assay results reported in patent publication US11384063B2, “Modulators of estrogen receptor proteolysis and associated methods of use” (Arvinas Operations, Inc., priority 2017, dated 2022).
# Where a name gives a salt, the structure may show the parent alone. Read-outs that look alike come from different tables or passages of the source.
# How the values were obtained:
# [1] = molecular target: T1, ERα (Homo sapiens, UniProt P03372); test: Estrogen receptor-alpha (ERα) degradation assay in MCF7 cells using In-Cell Western assay; type: cell-based; design: assessed for their activity in degrading ERα in MCF-7 cells via western blot; endogenous in cells; host or cells: MCF7 cells; conditions: ER-alpha degradation in MCF7 cells, 5 days of incubation
# T1 sequence (P03372 1-595): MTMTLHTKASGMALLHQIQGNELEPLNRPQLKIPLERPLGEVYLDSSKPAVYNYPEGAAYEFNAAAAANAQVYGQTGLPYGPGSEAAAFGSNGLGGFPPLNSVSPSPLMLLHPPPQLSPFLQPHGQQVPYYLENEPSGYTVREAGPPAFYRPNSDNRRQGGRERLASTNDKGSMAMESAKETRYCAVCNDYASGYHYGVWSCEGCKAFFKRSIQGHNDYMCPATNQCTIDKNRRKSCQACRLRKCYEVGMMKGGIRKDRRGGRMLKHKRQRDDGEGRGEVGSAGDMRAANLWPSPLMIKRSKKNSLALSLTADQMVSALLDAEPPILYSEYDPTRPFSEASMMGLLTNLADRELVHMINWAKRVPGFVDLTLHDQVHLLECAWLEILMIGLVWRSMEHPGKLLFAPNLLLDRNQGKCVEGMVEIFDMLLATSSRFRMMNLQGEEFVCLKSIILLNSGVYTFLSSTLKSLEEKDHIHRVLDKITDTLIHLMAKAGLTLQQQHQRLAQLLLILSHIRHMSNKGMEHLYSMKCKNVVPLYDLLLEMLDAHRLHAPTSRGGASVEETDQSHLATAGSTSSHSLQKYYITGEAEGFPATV
# Experimental: Estrogen Receptor-Alpha (ERα) Degradation Assay Using in-Cell Western™ Assay for Table 5.
# Degradation of ERα by claimed compounds were determined in MCF7 cells using an In-Cell Western™ assay. Briefly, MCF7 cells were plated in 96-well plates (2000 cells per well in 100 μl media) and incubated at 37° C. under an atmosphere of 5% CO2 in a humidified incubator overnight. One-hundred (100) μI of media containing test compound (at 2x concentration) was added to the appropriate wells to provide 11 serially decreasing concentrations (top final concentration, 1 μM then 3-fold less for the next 10 concentrations); a vehicle control (DMSO) was also added for each compound. For each experiment, all compounds were assayed on duplicate plates. Cells were then incubated for 3 or 5 days in the above-mentioned environment. The assay was terminated by removal of media, a single wash with ice-cold PBS and the addition of 50 μl paraformaldehyde (PFA: 4% in PBS). After 15 minutes in PFA at room temperature, the cells were permeabilized in Tris-phosphate-buffered saline with Tween (0.1%) (TBST) supplemented with Triton X-100 (0.5%) for 15 minutes. Cells were then blocked in BSA (TBST with BSA, 3%) for one hour. Primary antibodies for the detection of ERa (rabbit monoclonal, 1:1000, Cell Signaling Technology Catalog #8644) and tubulin (mouse monoclonal, 1:5000, Sigma Catalog #T6074) in TBST with BSA (3%) were added. The cells were incubated overnight at 4° C. The cells were then washed thrice with TBST at room temperature and then incubated with anti-rabbit and anti-mouse fluorescently-labelled secondary antibodies (IRDye®; LI-COR; Lincoln, Nebr.) in LI-COR blocking buffer (Catalog #927-50000) for one hour at room temperature. Following 3 washes with TBST, the buffer was removed and the plates were read on an Odyssey® infrared imaging system (LI-COR®, Lincoln, Nebr.) at 700 nm and 800 nm. Using commercial software (ImageStudio™; LI-COR, Lincoln, Nebr.), the staining intensity for ERa and tubulin in each well was quantified and exported for analysis. For each data point, ERa intensity was normalized to tubulin intensity and for each compound all normalized intensity values were normalized to the vehicle control. DC50 and Dmax values were determined following a 4-parameter IC50 curve fit using ACAS dose response module (McNeil & Co Inc.).
# [2] = molecular target: T1, ERα; test: ERE luciferase reporter gene assay in T47D-KBluc cells (target engagement); type: cell-based; design: T47D human breast cancer cells stably transfected with estrogen responsive element/promoter/luciferase reporter gene; host or cells: T47D-KBluc cells; conditions: 10% FBS, 24 hours, read-out: ER-α Luciferase IC50
# How it was run: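 T47D-KBluc breast cancer cells, which carry a stable ERE-luciferase reporter, were grown in RPMI with 10% FBS (about 10 pM estrogen) and exposed to PROTACs for 24 h. The 12-point, 3-fold series ran from 300 nM to 2 pM. Luciferase was read after lysis, and IC50 was fitted from duplicates.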
# [3] = Table 3 cereblon centric PROTACs
DC50 [1] [nM],Dmax [1] [%],"IC50 [2, 3] [nM]",IC50 ([2]; Table 1 cereblon centric PROTACs) [nM],Compound
10 to 100,> 75,2.9,–,"O=C1CCC(N2Cc3cc(N4CCN(C5CCN(CCOc6ccc(Oc7c(-c8ccc(C(F)(F)F)cc8)sc8cc(O)ccc78)cc6)CC5)CC4)ccc3C2=O)C(=O)N1 (centres unmarked) [Compound 192, 3-[5-[4-[1-[2-[4-[6-hydroxy-2-[4-(trifluoromethyl)phenyl]benzothiophen-3-yl]oxyphenoxy]ethyl]-4-piperidyl]piperazin-1-yl]-1-oxo-isoindolin-2-yl]piperidine-2,6-dione]"
1 to 10,> 75,4.9,–,"O=C1CCC(N2Cc3cc(N4CCN(CC5CCN(c6ccc(Oc7c(-c8ccc(Br)cc8)sc8cc(O)ccc78)cn6)CC5)CC4)ccc3C2=O)C(=O)N1 (centres unmarked) [Compound 236, 3-[5-[4-[[1-[5-[2-(4-bromophenyl)-6-hydroxy-benzothiophen-3-yl]oxy-2-pyridyl]-4-piperidyl]methyl]piperazin-1-yl]-1-oxo-isoindolin--2-yl]piperidine-2,6-dione]"
1 to 10,50 to 75,1,–,O=C1CCC(N2Cc3cc(NCCCN4CCN(CCOc5ccc(Oc6c(-c7ccc(C(F)(F)F)cc7)sc7cc(O)ccc67)cc5)CC4)ccc3C2=O)C(=O)N1 (centres unmarked) [Compound 179]
1 to 10,50 to 75,7.5,–,"O=C1CCC(N2Cc3cc(N4CCN(CCCOc5ccc(Oc6c(-c7ccc(OC(F)(F)F)cc7)sc7cc(O)ccc67)cc5)CC4)ccc3C2=O)C(=O)N1 (centres unmarked) [Compound 217, 3-[5-[4-[3-[4-[6-hydroxy-2-[4-(trifluoromethoxy)phenyl]benzothiophen-3-yl]oxyphenoxy]propyl]piperazin-1-yl]-1-oxo-isoindolin-2-yl]piperidine-2,6-dione]"
1 to 10,50 to 75,1.5,–,"O=C1CCC(N2Cc3cc(N4CCN(CCCOc5ccc(Oc6c(-c7ccc(F)cc7)sc7cc(O)ccc67)cc5)CC4)ccc3C2=O)C(=O)N1 (centres unmarked) [Compound 220, 3-[5-[4-[3-[4-[2(4-fluorophenyl)-6-hydroxybenzothiophen-3-yl]oxyphenoxy]propyl]piperazin-1-yl]-1-oxo-isoindolin-2-yl]piperidine-2,6-dione]"
1 to 10,> 75,6.9,–,"O=C1CCC(N2Cc3nc(N4CCN(CC5CCN(c6ccc(Oc7c(-c8ccc(Br)cc8)sc8cc(O)ccc78)cc6)CC5)CC4)ccc3C2=O)C(=O)N1 (centres unmarked) [Compound 235, 3-[2-[4-[[1-[4-[2-(4-bromophenyl)-6-hydroxy-benzothiophen-3-yl]oxyphenyl]-4-piperidyl]methyl]piperazin-1-yl]-5-oxo-7H-pyrrolo[3,4-b]pyridin-6-yl]piperidine-2,6-dione]"
–,< 50,4.8,–,"O=C1CCC(N2C(=O)c3ccc(N4CCN(CCOCc5ccc(Oc6c(-c7ccc(Br)cc7)sc7cc(O)ccc67)cc5)CC4)cc3C2=O)C(=O)N1 (centres unmarked) [Compound 225, 5-[4-[2-[[4-[2-(4-bromophenyl)-6-hydroxy-benzothiophen-3-yl]oxyphenyl]methoxy]ethyl]piperazin-1-yl]-2-(2,6-dioxo-3-piperidyl)isoindoline-1,3-dione]"
1 to 10,50 to 75,11.6,–,"O=C1CCC(N2C(=O)c3ccc(C4CCN(C5CCN(CCOc6ccc(Oc7c(-c8ccc(Br)cc8)sc8cc(O)ccc78)cc6)CC5)CC4)cc3C2=O)C(=O)N1 (centres unmarked) [Compound 190, 5-(1′-(2-(4-((2-(4-bromophenyl)-6-hydroxybenzo[b]thiophen-3-yl)oxy)phenoxy)ethyl)-[1,4′-bipiperidin]-4-yl)-2-(2,6-dioxopiperidin-3-yl)isoindoline-1,3-dione Hydrochloride]"
10 to 100,50 to 75,2.5,–,"O=C1CCC(N2C(=O)c3ccc(N4CCN(C5CCN(CCOc6ccc(Oc7c(-c8ccc(Br)cc8)sc8cc(O)ccc78)cc6)CC5)CC4)cc3C2=O)C(=O)N1 (centres unmarked) [Compound 183, 5-[4-[1-[2-[4-[2-(4-bromophenyl)-6-hydroxy-benzothiophen-3-yl]oxyphenoxy]ethyl]-4-piperidyl]piperazin-1-yl]-2-(2,6-dioxo-3-piperidyl)isoindoline-1,3-dione]"
10 to 100,> 75,13.3,–,"O=C1CCC(N2C(=O)c3ccc(N4CCN(CC5CCN(CCOc6ccc(Oc7c(-c8ccc(Br)cc8)sc8cc(O)ccc78)cc6)CC5)CC4)cc3C2=O)C(=O)N1 (centres unmarked) [Compound 184, 5-[4-[1-[2-[4-[2-(4-bromophenyl)-6-hydroxy-benzothiophen-3-yl]oxyphenoxy]ethyl]-4-piperidylmethyl]piperazin-1-yl]-2-(2,6-dioxo-3-piperidyl)isoindoline-1,3-dione]"
1 to 10,50 to 75,0.18,–,"O=C1CCC(N2Cc3nc(N4CCN(CC5CCN(c6ccc(Oc7c(-c8ccc(O)cc8)sc8cc(O)ccc78)cc6)CC5)CC4)ccc3C2=O)C(=O)N1 (centres unmarked) [Compound 243, 3-[2-[4-[[1-[4-[6-hydroxy-2-(4-hydroxyphenyl)benzothiophen-3-yl]oxyphenyl]-4-piperidyl]methyl]piperazin-1-yl]-5-oxo-7H-pyrrolo[3,4-b]pyridin-6-yl]piperidine-2,6-dione]"
1 to 10,50 to 75,–,2.7,"O=C1CCC(N2Cc3cc(OCCOCCOc4ccc(Oc5c(-c6ccc(Br)cc6)sc6cc(O)ccc56)cc4)ccc3C2=O)C(=O)N1 (centres unmarked) [Compound 33, 3-[5-[2-[2-[4-[2-(4-bromophenyl)-6-hydroxy-benzothiophen-3-yl]oxyphenoxy]ethoxy]ethoxy]-1-oxo-isoindolin-2-yl]piperidine-2,6-dione]"
< 1,> 75,1.6,–,"O=C1CCC(N2Cc3cc(N4CCN(CC5CCN(c6ccc(Oc7c(-c8ccc(F)cc8)sc8cc(O)ccc78)cn6)CC5)CC4)ccc3C2=O)C(=O)N1 (centres unmarked) [Compound 232, 3-[5-[4-[[1-[5-[2-(4-fluorophenyl)-6-hydroxy-benzothiophen-3-yl]oxy-2-pyridyl]-4-piperidyl]methyl]piperazin-1-yl]-1-oxo-isoindolin-2-yl]piperidine-2,6-dione]"
1 to 10,50 to 75,4.5,–,"O=C1CCC(N2C(=O)c3ccc(N4CCN(CC5CN(CCOc6ccc(Oc7c(-c8ccc(Br)cc8)sc8cc(O)ccc78)cc6)C5)CC4)cc3C2=O)C(=O)N1 (centres unmarked) [Compound 185, 5-[4-[[1-[2-[4-[2-(4-bromophenyl)-6-hydroxy-benzothiophen-3-yl]oxyphenoxy]ethyl]azetidin-3-yl]methyl]piperazin-1-yl]-2-(2,6-dioxo-3-piperidyl)isoindoline-1,3-dione]"
< 1,50 to 75,0.65,–,"COc1ccc(-c2sc3cc(O)ccc3c2Oc2ccc(N3CCC(CN4CCN(c5ccc6c(c5)CN(C5CCC(=O)NC5=O)C6=O)CC4)CC3)cc2)cc1 (centres unmarked) [Compound 234, 3-[5-[4-[[1-[4-[6-hydroxy-2-(4-methoxyphenyl)benzothiophen-3-yl]-oxyphenyl]-4-piperidyl]methyl]piperazin-1-yl]-1-oxo-isoindolin-2-yl]piperidine-2,6-dione]"
